Converted amounts (≈) assume the structure as drawn. The source made the active and inactive calls. No cut-off for these calls is given here.
What was measured:
Staphylococcus aureus [1] = experiment: microbe, parasite or virus in culture; format: functional; settings: NCTC 4163, 18 h
Staphylococcus aureus [2] = experiment: microbe, parasite or virus in culture; format: functional; settings: ATCC 29213, 18 h
Staphylococcus aureus [3] = experiment: microbe, parasite or virus in culture; format: functional; settings: ATCC 6538, 18 h
[4] = test system: Staphylococcus epidermidis; experiment: microbe, parasite or virus in culture; format: functional; settings: ATCC 12228, 18 h
Enterococcus hirae = experiment: microbe, parasite or virus in culture; format: functional; settings: ATCC 10541, 18 h
Escherichia coli [5] = experiment: microbe, parasite or virus in culture; format: functional; settings: ATCC 25922, 18 h
Escherichia coli [6] = experiment: microbe, parasite or virus in culture; format: functional; settings: NCTC 8196, 18 h
Pseudomonas aeruginosa [7] = experiment: microbe, parasite or virus in culture; format: functional; settings: ATCC 15442, 18 h
Pseudomonas aeruginosa [8] = experiment: microbe, parasite or virus in culture; format: functional; settings: ATCC 27853, 18 h
SW480 [9] = experiment: Cytotoxicity against human SW480 cells at 60 uM incubated for 72 hrs by LDH release assay (reference value: […]); format: functional
SW480 [10] = experiment: Cytotoxicity against human SW480 cells at 40 uM incubated for 72 hrs by LDH release assay (reference value: […]); format: functional
SW480 [11] = experiment: Cytotoxicity against human SW480 cells at 20 uM incubated for 72 hrs by LDH release assay (reference value: […]); format: functional
SW480 [12] = experiment: Cytotoxicity against human SW480 cells at 10 uM incubated for 72 hrs by LDH release assay (reference value: […]); format: functional
SW-620 [13] = experiment: Cytotoxicity against human SW620 cells at 60 uM incubated for 72 hrs by LDH release assay (reference value: 4.2 %); format: functional
SW-620 [14] = experiment: Cytotoxicity against human SW620 cells at 40 uM incubated for 72 hrs by LDH release assay (reference value: 4.2 %); format: functional
SW-620 [15] = experiment: Cytotoxicity against human SW620 cells at 20 uM incubated for 72 hrs by LDH release assay (reference value: 4.2 %); format: functional
SW-620 [16] = experiment: Cytotoxicity against human SW620 cells at 10 uM incubated for 72 hrs by LDH release assay (reference value: 4.2 %); format: functional
PC-3 [17] = experiment: Cytotoxicity against human PC3 cells at 60 uM incubated for 72 hrs by LDH release assay (reference value: […]); format: functional
PC-3 [18] = experiment: Cytotoxicity against human PC3 cells at 40 uM incubated for 72 hrs by LDH release assay (reference value: […]); format: functional
PC-3 [19] = experiment: Cytotoxicity against human PC3 cells at 20 uM incubated for 72 hrs by LDH release assay (reference value: […]); format: functional
PC-3 [20] = experiment: Cytotoxicity against human PC3 cells at 10 uM incubated for 72 hrs by LDH release assay (reference value: […]); format: functional
PC-3 [21] = experiment: Induction of apoptosis in human PC3 cells assessed as viable cells at antiproliferative IC50 incubated for 72 hrs by annexin V FITC and PI staining based flow cytometry (reference value: 95.1 %); format: functional
PC-3 [22] = experiment: Induction of apoptosis in human PC3 cells assessed as early apoptotic cells at antiproliferative IC50 incubated for 72 hrs by annexin V FITC and PI staining based flow cytometry (reference value: […]); format: functional
PC-3 [23] = experiment: Induction of apoptosis in human PC3 cells assessed as late apoptotic cells at antiproliferative IC50 incubated for 72 hrs by annexin V FITC and PI staining based flow cytometry (reference value: […]); format: functional
PC-3 [24] = experiment: Induction of apoptosis in human PC3 cells assessed as necrotic cells at antiproliferative IC50 incubated for 72 hrs by annexin V FITC and PI staining based flow cytometry (reference value: […]); format: functional
SW-620 [25] = experiment: Induction of apoptosis in human SW620 cells at antiproliferative IC50 incubated for 72 hrs by annexin V FITC and PI staining based flow cytometry; format: functional
HaCaT [26] = experiment: Induction of apoptosis in human HaCaT cells at antiproliferative IC50 incubated for 72 hrs by annexin V FITC and PI staining based flow cytometry; format: cell-based
SW480 [27] = experiment: Reduction of IL-6 level in human SW480 cells at antiproliferative IC50 incubated for 72 hrs by ELISA relative to control; format: functional
SW-620 [28] = experiment: Reduction of IL-6 level in human SW620 cells at antiproliferative IC50 incubated for 72 hrs by ELISA relative to control; format: functional
HaCaT [29] = experiment: Reduction of IL-6 level in human HaCaT cells at antiproliferative IC50 incubated for 72 hrs by ELISA relative to control; format: cell-based
SW480 [30] = experiment: Antiproliferative activity against human SW480 cells assessed as reduction in cell viability incubated for 72 hrs by MTT assay; format: functional, cell-based; settings: SW480, 72 h
HaCaT [31] = experiment: Cytotoxicity against human HaCaT cells assessed as reduction in cell viability incubated for 72 hrs by MTT assay; format: cell-based
PC-3 [32] = experiment: Antitumor activity against human PC3 cells assessed as reduction in IL-6 level at antiproliferative IC50 incubated for 72 hrs by ELISA relative to control; format: functional

CC(C)=CCC/C(C)=C/C(=O)O
MIC (Staphylococcus aureus [1]): > 512 µg/mL
MIC (Staphylococcus aureus [2]): > 512 µg/mL
MIC (Staphylococcus aureus [3]): > 512 µg/mL
MIC [4]: 512 µg/mL (≈ 3040 µM)
MIC (Enterococcus hirae): 512 µg/mL (≈ 3040 µM)
MIC (Escherichia coli [5]): 512 µg/mL (≈ 3040 µM)
MIC (Escherichia coli [6]): > 512 µg/mL
MIC (Pseudomonas aeruginosa [7]): 512 µg/mL (≈ 3040 µM)
MIC (Pseudomonas aeruginosa [8]): 512 µg/mL (≈ 3040 µM)

O=C(O)c1cn(C2CC2)c2cc(N3CCNCC3)c(F)cc2c1=O [CIPROFLOXACIN]
Activity (SW480 [9]): 15%
Activity (SW480 [10]): 14.5%
Activity (SW480 [11]): 14.2%
Activity (SW480 [12]): 12%
Activity (SW-620 [13]): 9.3%
Activity (SW-620 [14]): 9.1%
Activity (SW-620 [15]): 8.9%
Activity (SW-620 [16]): 8.1%
Activity (PC-3 [17]): 18%
Activity (PC-3 [18]): 17.5%
Activity (PC-3 [19]): 16.5%
Activity (PC-3 [20]): 14%
Activity (PC-3 [21]): 59.7%
Activity (PC-3 [22]): 5.3%
Activity (PC-3 [23]): 31.1%
Activity (PC-3 [24]): 3.9%
Activity (SW-620 [25]): 31.4 - 39.2%
Activity (HaCaT [26]): 6.2 to 12%
Activity (SW480 [27]): Active
Activity (SW-620 [28]): Active
Activity (HaCaT [29]): Active
MIC (Staphylococcus aureus [1]): 0.25 µg/mL (≈ 0.754 µM)
MIC (Staphylococcus aureus [2]): 0.5 µg/mL (≈ 1.51 µM)
MIC (Staphylococcus aureus [3]): 0.5 µg/mL (≈ 1.51 µM)
MIC [4]: 0.25 µg/mL (≈ 0.754 µM)
MIC (Enterococcus hirae): 8 µg/mL (≈ 24.1 µM)

C/C=C/C(=O)O [CROTONIC ACID]
MIC (Staphylococcus aureus [1]): > 512 µg/mL
MIC (Staphylococcus aureus [2]): > 512 µg/mL
MIC (Staphylococcus aureus [3]): > 512 µg/mL
MIC [4]: > 512 µg/mL
MIC (Enterococcus hirae): > 512 µg/mL
MIC (Escherichia coli [5]): > 512 µg/mL
MIC (Escherichia coli [6]): > 512 µg/mL
MIC (Pseudomonas aeruginosa [7]): > 512 µg/mL
MIC (Pseudomonas aeruginosa [8]): > 512 µg/mL

COc1cccc2c1C(=O)c1c(O)c3c(c(O)c1C2=O)C[C@@](O)(C(=O)CO)C[C@@H]3O[C@H]1C[C@H](N)[C@H](O)[C@H](C)O1 [DOXORUBICIN]
IC50 (SW480 [30]): 750 nM
IC50 (HaCaT [31]): 290 nM
Activity (PC-3 [32]): Active
Activity (SW480 [27]): Active
Activity (SW-620 [28]): Active
Activity (HaCaT [29]): Active

CCCCCCCC/C=C/CCCCCCCC(=O)O [ELAIDIC ACID]
MIC (Staphylococcus aureus [1]): 512 µg/mL (≈ 1810 µM)
MIC (Staphylococcus aureus [2]): 512 µg/mL (≈ 1810 µM)
MIC (Staphylococcus aureus [3]): 512 µg/mL (≈ 1810 µM)
MIC [4]: 512 µg/mL (≈ 1810 µM)
MIC (Enterococcus hirae): 512 µg/mL (≈ 1810 µM)
MIC (Escherichia coli [5]): 512 µg/mL (≈ 1810 µM)
MIC (Escherichia coli [6]): 512 µg/mL (≈ 1810 µM)
MIC (Pseudomonas aeruginosa [7]): 512 µg/mL (≈ 1810 µM)
MIC (Pseudomonas aeruginosa [8]): 512 µg/mL (≈ 1810 µM)

CCCCCCCC/C=C\CCCCCCCCCCCC(=O)O [ERUCIC ACID]
MIC (Staphylococcus aureus [1]): > 512 µg/mL
MIC (Staphylococcus aureus [2]): > 512 µg/mL
MIC (Staphylococcus aureus [3]): 128 µg/mL (≈ 378 µM)
MIC [4]: 256 µg/mL (≈ 756 µM)
MIC (Enterococcus hirae): 64 µg/mL (≈ 189 µM)
MIC (Escherichia coli [5]): > 512 µg/mL
MIC (Escherichia coli [6]): 512 µg/mL (≈ 1510 µM)
MIC (Pseudomonas aeruginosa [7]): 512 µg/mL (≈ 1510 µM)
MIC (Pseudomonas aeruginosa [8]): 512 µg/mL (≈ 1510 µM)

CC/C=C\C/C=C\C/C=C\CCCCCCCC(=O)O [LINOLENIC ACID]
MIC (Staphylococcus aureus [1]): 128 µg/mL (≈ 460 µM)
MIC (Staphylococcus aureus [2]): 128 µg/mL (≈ 460 µM)
MIC (Staphylococcus aureus [3]): 128 µg/mL (≈ 460 µM)
MIC [4]: 512 µg/mL (≈ 1840 µM)
MIC (Enterococcus hirae): 512 µg/mL (≈ 1840 µM)
MIC (Escherichia coli [5]): > 512 µg/mL
MIC (Escherichia coli [6]): > 512 µg/mL
MIC (Pseudomonas aeruginosa [7]): 512 µg/mL (≈ 1840 µM)
MIC (Pseudomonas aeruginosa [8]): 512 µg/mL (≈ 1840 µM)

CCCCCCCC/C=C\CCCCCCCC(=O)O [OLEIC ACID]
MIC (Staphylococcus aureus [1]): 256 to 512 µg/mL (≈ 906 to 1810 µM)
MIC (Staphylococcus aureus [2]): 256 to 512 µg/mL (≈ 906 to 1810 µM)
MIC (Staphylococcus aureus [3]): 256 µg/mL (≈ 906 µM)
MIC [4]: 512 µg/mL (≈ 1810 µM)
MIC (Enterococcus hirae): 128 to 256 µg/mL (≈ 453 to 906 µM)
MIC (Escherichia coli [5]): 512 µg/mL (≈ 1810 µM)
MIC (Escherichia coli [6]): 512 µg/mL (≈ 1810 µM)
MIC (Pseudomonas aeruginosa [7]): 512 µg/mL (≈ 1810 µM)
MIC (Pseudomonas aeruginosa [8]): 256 to 512 µg/mL (≈ 906 to 1810 µM)

CCCCCCCCCCCCCCCC(=O)O [PALMITIC ACID]
MIC (Staphylococcus aureus [1]): 512 µg/mL (≈ 2000 µM)
MIC (Staphylococcus aureus [2]): 512 µg/mL (≈ 2000 µM)
MIC (Staphylococcus aureus [3]): 512 µg/mL (≈ 2000 µM)
MIC [4]: 512 µg/mL (≈ 2000 µM)
MIC (Enterococcus hirae): 512 µg/mL (≈ 2000 µM)
MIC (Escherichia coli [5]): 512 µg/mL (≈ 2000 µM)
MIC (Escherichia coli [6]): 512 µg/mL (≈ 2000 µM)
MIC (Pseudomonas aeruginosa [7]): 512 µg/mL (≈ 2000 µM)
MIC (Pseudomonas aeruginosa [8]): 512 µg/mL (≈ 2000 µM)

C/C=C/C=C/C(=O)O [SORBIC ACID]
MIC (Staphylococcus aureus [1]): > 512 µg/mL
MIC (Staphylococcus aureus [2]): > 512 µg/mL
MIC (Staphylococcus aureus [3]): > 512 µg/mL
MIC [4]: > 512 µg/mL
MIC (Enterococcus hirae): 512 µg/mL (≈ 4570 µM)
MIC (Escherichia coli [5]): 512 µg/mL (≈ 4570 µM)
MIC (Escherichia coli [6]): > 512 µg/mL
MIC (Pseudomonas aeruginosa [7]): 512 µg/mL (≈ 4570 µM)
MIC (Pseudomonas aeruginosa [8]): 512 µg/mL (≈ 4570 µM)
